Data from paper PMC4147775, “Stimulation of Hepatic Apolipoprotein A-I Production by Novel Thieno-Triazolodiazepines: Roles of the Classical Benzodiazepine Receptor, PAF Receptor, and Bromodomain Binding” (Lipid insights, 2013).
Like-named read-outs stand apart in the source and are kept apart here.

Legend:
[1] = tested on: fibrosarcoma cells (HT1080); conditions: read-out: mitochondrial membrane potential, IC50, cited from earlier work
[2] = tested on: fibrosarcoma cells (HT1080); test: Cytotoxicity: mitochondrial membrane potential (TMRM); conditions: for IC50: read-out: mitochondrial membrane potential in fibrosarcoma cells, IC50; for mitochondrial membrane potential in fibrosarcoma cells: 100 μM, result in words
[3] = Cytotoxicity: ATP level (Cell Titer Glo); assay type: cell-based, human; conditions: 72 hours; for ATP level in human hepatocytes: result in words
BRD3(1) = biological target: T1, BRD3(1) (Homo sapiens, UniProt Q15059); test: Protein stability shift assay (thermal shift), BRD3(1); assay type: binding; conditions: 10 μM ligand
T1 construct: the second as compared with the first bromodomain of these BRDs

BAZ2B = biological target: T2, BAZ2B (Homo sapiens, UniProt Q9UIF8); test: Protein stability shift assay (thermal shift), BAZ2B; assay type: binding; conditions: 10 μM ligand
T2 construct: Thermal shift (Δtm^obs) of human bromodomains in the presence of 10 μM compound
T2 sequence (Q9UIF8 2060-2164 limits assumed): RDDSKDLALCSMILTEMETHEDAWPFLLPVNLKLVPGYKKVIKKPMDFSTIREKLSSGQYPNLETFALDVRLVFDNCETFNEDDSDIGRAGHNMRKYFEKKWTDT

BRD4(2) = biological target: T3, BRD4(2) (Homo sapiens, UniProt O60885); test: Protein stability shift assay (thermal shift), BRD4(2); assay type: binding; conditions: 10 μM ligand
T3 construct: the second as compared with the first bromodomain of these BRDs

BRD2(2) = biological target: T4, BRD2(2) (Homo sapiens, UniProt P25440); test: Protein stability shift assay (thermal shift), BRD2(2); assay type: binding; conditions: 10 μM ligand
T4 construct: the second as compared with the first bromodomain of these BRDs

[4] = tested on: apoA-I production by primary human hepatocytes; test: apoA-I production by primary human hepatocytes (ELISA); assay type: cell-based; conditions: cultured human hepatocytes, 72 hours, maximal stimulation
[5] = Metabolic stability in human hepatocytes; assay type: in vitro ADME; conditions: cryopreserved human hepatocytes, donor 1, 10 μM, read-out: stability in human hepatocytes (% remaining after 120 min)
CREBBP = biological target: T5, CREBBP (Homo sapiens, UniProt Q92793); test: Protein stability shift assay (thermal shift), CREBBP; assay type: binding; conditions: 10 μM ligand
T5 construct: Thermal shift (Δtm^obs) of human bromodomains in the presence of 10 μM compound

BRD3(2) = BRD3(2) (Homo sapiens, UniProt Q15059); test: Protein stability shift assay (thermal shift), BRD3(2); assay type: binding; design: the second as compared with the first bromodomain of these BRDs; conditions: 10 μM ligand
[6] = biological target: T6, human recombinant PAF receptor (Homo sapiens, UniProt P25105); test: Binding to PAF receptor, 3H-C16-PAF, CHO cells; conditions: cells expressing the human PAF receptor, result in words (Figure 3B)
T6 construct: expressed in transfected cells; host or cells: CHO cells

apoA-I = tested on: apoA-I; design: method as in PMID 21449977; conditions: mice transgenic for human apoA-I; cited from earlier work
PB1(5) = biological target: T7, PB1(5) (Homo sapiens, UniProt Q86U86); test: Protein stability shift assay (thermal shift), PB1(5); assay type: binding; conditions: 10 μM ligand
T7 construct: Thermal shift (Δtm^obs) of human bromodomains in the presence of 10 μM compound

BRDT(2) = biological target: T8, BRDT(2) (Homo sapiens, UniProt Q58F21); test: Protein stability shift assay (thermal shift), BRDT(2); assay type: binding; conditions: 10 μM ligand
T8 construct: the second as compared with the first bromodomain of these BRDs

PCAF = biological target: T9, PCAF (Homo sapiens, UniProt Q92831); test: Protein stability shift assay (thermal shift), PCAF; assay type: binding; conditions: 10 μM ligand
T9 construct: Thermal shift (Δtm^obs) of human bromodomains in the presence of 10 μM compound
T9 sequence (Q92831 723-827 limits assumed): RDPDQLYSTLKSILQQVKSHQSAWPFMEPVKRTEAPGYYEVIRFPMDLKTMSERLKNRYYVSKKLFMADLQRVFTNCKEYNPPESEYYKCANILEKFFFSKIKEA

BRD2(1) = biological target: T10, BRD2(1) (Homo sapiens, UniProt P25440); test: Protein stability shift assay (thermal shift), BRD2(1); assay type: binding; conditions: 10 μM ligand
T10 construct: the second as compared with the first bromodomain of these BRDs

BRDT(1) = biological target: T11, BRDT(1) (Homo sapiens, UniProt Q58F21); test: Protein stability shift assay (thermal shift), BRDT(1); assay type: binding; conditions: 10 μM ligand
T11 construct: the second as compared with the first bromodomain of these BRDs

central BZD receptor = test: Binding to central BZD receptor, 3H-flunitrazepam, rat cerebral cortex membranes; conditions: for competition with labeled flunitrazepam: rat brain membranes, result in words (Figure 3A)
BRD4(1) = BRD4(1) (Homo sapiens, UniProt O60885); test: Protein stability shift assay (thermal shift), BRD4(1); assay type: binding; design: the second as compared with the first bromodomain of these BRDs; conditions: 10 μM ligand
[7] = tested on: apoA-I production by Hep-G2 cells; test: apoA-I production by HepG2 cells (ELISA); assay type: cell-based, human; conditions: result in words (Figure 5)
Description: On the day of the experiment, supernatant medium was discarded and replaced by a solution of test compounds in HCM™ medium, which was prepared from DMSO stock solutions immediately before use. Stock solution concentrations assured that DMSO never exceeded 0.1% in the assay, as DMSO alone exerts significant effects on hepatocyte gene expression. Each concentration was run in triplicate whereas multiple wells were prepared for vehicle (DMSO) controls. The cells were cultured in the presence of the studied compounds and DMSO control for 72 hours at 37°C in 5% CO2 in air. The supernatants were replaced by a fresh dilution of test compounds after 24 hours and 48 hours, respectively. […]
After removal of the supernatants after 72 hours, all wells were washed 3 times with 200 μL isotonic 0.29 MD-mannitol and 25 μL d H2O was added to each well. The protein content of each well was determined using the Pierce® BCA Protein Assay Kit according to kit instructions and calculated as micrograms cellular protein per well.
For apoA-I detection, the human apoA1 ELISA kit from Mabtech Nacka, Sweden (Catalog no. 3710-1H-20) was used. […] Finally, the chromogenic substrate was added, and absorbance was measured at 450 nm.
The apoA-I content of each sample was calculated using the standard curve generated with each plate and was expressed as ng apoA-I per mg of cellular protein.

T4 sequence (P25440 344-453 limits assumed): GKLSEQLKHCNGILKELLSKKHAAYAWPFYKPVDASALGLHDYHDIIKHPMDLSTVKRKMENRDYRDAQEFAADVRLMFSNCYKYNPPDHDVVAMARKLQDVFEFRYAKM
T7 sequence (Q86U86 653-763 limits assumed): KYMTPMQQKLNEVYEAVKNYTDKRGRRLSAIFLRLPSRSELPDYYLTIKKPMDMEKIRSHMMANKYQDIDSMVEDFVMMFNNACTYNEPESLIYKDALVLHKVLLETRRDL
T1 sequence (Q15059 34-140 limits assumed): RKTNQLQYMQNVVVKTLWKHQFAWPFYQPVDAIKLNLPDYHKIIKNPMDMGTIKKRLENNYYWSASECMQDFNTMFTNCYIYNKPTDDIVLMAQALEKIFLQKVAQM
T10 sequence (P25440 74-180 limits assumed): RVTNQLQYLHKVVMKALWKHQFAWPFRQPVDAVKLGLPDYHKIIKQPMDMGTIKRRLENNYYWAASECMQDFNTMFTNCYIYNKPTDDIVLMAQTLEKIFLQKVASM
Sequence of BRD3(2) (Q15059 306-415 limits assumed): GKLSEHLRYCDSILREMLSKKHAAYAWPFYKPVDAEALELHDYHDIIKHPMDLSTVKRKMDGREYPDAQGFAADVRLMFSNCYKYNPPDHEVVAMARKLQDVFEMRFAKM
T5 sequence (Q92793 1085-1192 limits assumed): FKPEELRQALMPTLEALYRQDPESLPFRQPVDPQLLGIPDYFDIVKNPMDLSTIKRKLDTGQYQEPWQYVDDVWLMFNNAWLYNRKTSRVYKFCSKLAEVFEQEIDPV
T6 sequence (P25105 whole entry): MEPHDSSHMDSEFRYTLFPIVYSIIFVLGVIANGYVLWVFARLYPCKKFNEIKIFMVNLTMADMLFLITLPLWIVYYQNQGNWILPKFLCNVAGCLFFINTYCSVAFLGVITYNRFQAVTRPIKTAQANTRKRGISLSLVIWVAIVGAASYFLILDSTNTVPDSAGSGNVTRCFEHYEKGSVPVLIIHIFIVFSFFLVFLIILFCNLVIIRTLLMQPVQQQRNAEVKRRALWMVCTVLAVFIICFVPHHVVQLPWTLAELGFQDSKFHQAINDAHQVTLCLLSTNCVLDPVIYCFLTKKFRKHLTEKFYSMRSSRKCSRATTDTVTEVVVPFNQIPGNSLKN

SMILES	Thermal shift (ΔTm obs) BRD3(1) (BRD3(1))	Thermal shift (ΔTm obs) BAZ2B (BAZ2B)	Thermal shift (ΔTm obs) BRD4(2) (BRD4(2))	Thermal shift (ΔTm obs) BRD2(2) (BRD2(2))	stimulation of apoA-I production [4]	remaining at 2 h, 10 μM [5]	mitochondrial membrane potential in fibrosarcoma cells ([2]; 72 hours)	Thermal shift (ΔTm obs) CREBBP (CREBBP)	Thermal shift (ΔTm obs) BRD3(2) (BRD3(2))	competition with labeled PAF [6]	Thermal shift (ΔTm obs) PB1(5) (PB1(5))	Thermal shift (ΔTm obs) BRDT(2) (BRDT(2))	Thermal shift (ΔTm obs) PCAF (PCAF)	Thermal shift (ΔTm obs) BRD2(1) (BRD2(1))	ATP level in human hepatocytes ([3]; 100 μM)	Thermal shift (ΔTm obs) BRDT(1) (BRDT(1))	competition with labeled flunitrazepam (central BZD receptor)	Thermal shift (ΔTm obs) BRD4(1) (BRD4(1))	further results
COCc1c(C(C)C)nc(C(C)C)c(/C=C/[C@@H](O)C[C@@H](O)CC(=O)O)c1-c1ccc(F)cc1 [Cerivastatin]																			IC50 ([1]; ref CEREP Cytotoxicity Application Note): 660 nM; IC50 ([1]; ref CEREP study report 14547): 1100 nM; IC50 ([1]; ref O’Brien et al. Arch toxicol. 2006;80:580–604): 3000 nM; IC50 ([2]; Homo sapiens, HT-1080, 72 h): 2600 nM; ATP level in human hepatocytes, reduction ([3]; 20 μM): 59 ± 10% reduction at 20 μM (n = 3)
N#CC(C#N)=NNc1ccc(OC(F)(F)F)cc1 [FCCP, reference compound]																			IC50 ([2]; 72 hours): 17000 nM; ATP level in human hepatocytes, reduction ([3]; 100 μM): 96 ± 0.7% reduction at 100 μM (n = 2)
Cc1nnc2n1-c1sccc1C(c1ccccc1)=NC2 [MDCO-3760]	1.9	0.1	2.8	2.6	up to 3 fold	105%	no effect at 100 μM (n = 5)	−0.1	3.0	able to compete	−4.7	3.2	2.2	0.1	no effect at 100 μM (n = 3)	0.4	able to compete	2.7	plasma levels of apoA-I (apoA-I): increased
CN1C(=O)CN=C(c2ccccc2)c2cc(Cl)ccc21 [Diazepam, reference compound]																			IC50 (central BZD receptor; 3H-flunitrazepam, rat cerebral cortex membranes, reference): 20 nM
Cc1nnc2n1-c1sccc1C(c1ccc3c(c1)OCO3)=NC2 [MDCO-3783]	1.8	0.0	1.9	1.8	up to 3 fold	97%	no effect at 100 μM (n = 5)	−0.1	2.1	only weakly displaced	0.0	2.4	1.9	0.3	no effect at 100 μM (n = 3)	0.3	did not compete	2.4	effect on apoA-I production [7]: potency and efficacy comparable to that of (−)-JQ1
